Experimental data as given in patent publication US4824837A, “Novel 1,4-dihydropyridine derivatives, process for preparing the same, and agents for treating disorders of circulatory system” (Suntory Limited, priority 1985, dated 1989).
Where two headings read alike, the source gives them in different places.

Key:
[1] = system: vascular resistance of the vertebral artery; test: vascular resistance of the vertebral artery in anesthetized dogs; type: in vivo; settings: intravenous injection; for ED30: Canis lupus familiaris, vertebral artery vascular resistance
Description: The pharmacological effect (ED30) of selected 2-chloro-1,4-dihydropyridine derivatives of the present invention with respect to the vascular resistance of the vertebral artery in anesthetized dogs was treated by the following procedures.
Adult dogs of either sex (7-14 kg in body weight) were anesthetized with at first thiopental sodium (35 mg/kg, intraperitoneal), anesthetized with urethane (400 mg/kg, intravenous) and α-chloalose (60 mg/kg, intravenous) and kept under artificial respiration throughout the experiment. After thoracotomy at the left first intercostal space, the vertebral artery was exposed and blood flow was measured with an intracorporeal flow probe connected to an electromagnetic flowmeter (MF-27, Nihon Kohden).
At the same time, continuous measurement of the following parameters was made: systemic blood pressure (mean pressure) at the right femoral artery, the limb lead II ECG, the heart rate with a tachometer triggered by the R wave of ECG, and the vascular resistance determined by loading an electronic divider (EO-601 G, Nihon Kohden) with the mean values of blood pressure and vertebral artery blood flow. All of these parameters were recorded simultaneously on a polygraph (RM-600, Nihon Kohden).
All the test compounds were injected through a cannula inserted into the femoral vein.
The ED30 (μg/kg) values obtained by intravenous injection and the values of T1/2 (min) (the time to reach 50% of the resistance drop) are shown in Table 3, wherein the Compound Numbers are keyed to the Example Numbers.

[2] = acute toxicity (LD50) in male mice; settings: mouse, in vivo
From the text: The acute toxicity (LD50) data of selected compounds of the present invention as administered to two groups of male mice were obtained and the results are shown in Table 5. One group of mice which received peroral administration had been starved overnight. Each of the test compounds was suspended in 0.5% CMC-Na for peroral administration, or dissolved in dimethyl sulfoxide and diluted with physiological saline solution for intravenous injection.

[3] = system: conscious spontaneously hypertensive rats (SHR); test: hypotensive action in conscious spontaneously hypertensive rats (SHR); type: in vivo; settings: 10 mg/kg orally, starved overnight
Description: Selected compounds of the present invention were tested for their hypotensive action in conscious spontaneously hypertensive rats (SHR).
A group of 17 to 20-week old male SHR were anesthetized with ether and a cannula was inserted into the left femoral artery. At least one day after the operation, the cannula was connected to a pressure transducer and the blood pressure was measured continuously under conscious and unrestrained condition, thereby obtaining the data shown in Table 4. Each of the test compounds as a clear suspension in 0.5% CMC-Na was administered orally at a dose of 10 mg/kg (body weight) to each animal which was starved overnight.

[4] = system: isolated guinea pig hearts (coronary artery); test: coronary vascular dilative effect in isolated guinea pig hearts (Langendorff); parameters: species or system Hartley guinea pigs; settings: isolated hearts perfused at 37° C., 0.1 ml of diluted solution into the coronary artery
Description: The coronary vascular dilative effect of selected 2-chloro-1,4-dihydropyridine derivatives of the present invention was tested.
Hartley guinea pigs (weight 400-500 g) were killed by a blow on the head and their hearts were immediately isolated. The hearts were perfused with Krebs-Henseleit solution bubbled with a mixture of 95% O2 +5% CO2 and maintained at 37° C. at a constant rate of 6 ml/minute according to Langendorff's method [J. Pharmacol. Methods 2, 143 (1979)]. The perfusion pressure was measured continuously by a pressure transducer. Samples were prepared by emulsifying 1 mg of a test compound in 1 ml of a mixture of dimethylsulfoxide and physiological saline solution (1:9) and diluting with physiological saline solution to the predetermined concentration. 0.1 ml of the diluted solution was administered into the coronary artery via rubber tube connected to an aorta cannula to obtain ED50 (μg/heart) data as shown in Table 2. The numbers of the compounds in the Table correspond respectively to those of the working examples described above.

[5] = iv, male mice, read-out: LD50 i.v.
[6] = po, male mice starved overnight, suspended in 0.5% CMC-Na, read-out: LD50 p.o.

Compound | ED30 [1] [mg/kg] | T1/2 (the time to reach 50% of the resistance drop) [1] [min] | further results
COC(=O)C1=C(C)NC(Cl)=C(C(=O)OC)C1c1cccc([N+](=O)[O-])c1 (stereo not drawn) [SUN 4616] | 0.0012 | – | –
COC(=O)C1=C(Cl)NC(C)=C(C(=O)OCCCCCc2ccccc2)C1c1cccc([N+](=O)[O-])c1 (stereo not drawn) [SUN 5088] | 0.0014 | 17.0 | –
COC(=O)C1=C(Cl)NC(C)=C(C(=O)OC(CN(C)Cc2ccccc2)c2ccccc2)C1c1cccc([N+](=O)[O-])c1 (stereo not drawn) [SUN 5181] | 0.0021 | – | –
COC(=O)C1=C(Cl)NC(C)=C(C(=O)OCCOc2ccccc2)C1c1cccc([N+](=O)[O-])c1 (stereo not drawn) [SUN 5151] | 0.0036 | 10.5 | –
COC(=O)C1=C(Cl)NC(C)=C(C(=O)OCCN2CCN(C(c3ccccc3)c3ccccc3)CC2)C1c1cccc([N+](=O)[O-])c1 (stereo not drawn) [SUN 4752, 5-[2-(4-Benzhydrylpiperazin-1-yl)ethyl]oxycarbonyl-2-chloro-3-methoxycarbonyl-6-methyl-4-(3-nitrophenyl)-1,4-dihydropyridine] | 0.003 | > 30 | LD50 [2, 5]: 23 to 27 mg/kg; LD50 [2, 6]: 1000 mg/kg; Blood pressure drop, Maximum drop [3]: 35%; Blood pressure drop, 6 hours [3]: 30%
COC(=O)C1=C(C)NC(C)=C(C(=O)OCCN(C)Cc2ccccc2)C1c1cccc([N+](=O)[O-])c1 (stereo not drawn) [Nicardipine, reference compound] | – | – | LD50 [2, 5]: 12.2 mg/kg; LD50 [2, 6]: 455 mg/kg; Blood pressure drop, Maximum drop [3]: 39%; Blood pressure drop, 6 hours [3]: 10-20%
COC(=O)C1=C(Cl)NC(C)=C(C(=O)OC2CCCN(Cc3ccc(F)cc3)C2)C1c1cccc([N+](=O)[O-])c1 (stereo not drawn) [SUN 5142, 2-Chloro-5-[1-(4-fluorobenzyl)piperidin-3-yl]oxycarbonyl-3-methoxycarbonyl-6-methyl-4-(3-nitrophenyl)-1,4-dihydroppyridine] | 0.0028 | > 30 | ED50 [4]: 0.03 μg/heart
COC(=O)C1=C(Cl)NC(C)=C(C(=O)OCCc2cccs2)C1c1cccc([N+](=O)[O-])c1 (stereo not drawn) [SUN 5163] | 0.0093 | 14.0 | –
CCCCCCCOC(=O)C1=C(C)NC(Cl)=C(C(=O)OC)C1c1cccc([N+](=O)[O-])c1 (stereo not drawn) [SUN 5143] | 0.0022 | 20.5 | ED50 [4]: 0.02 μg/heart
COC(=O)C1=C(C)NC(Cl)=C(C(=O)OC)C1c1ccccc1[N+](=O)[O-] (stereo not drawn) [SUN 4671] | 0.00059 | – | –
CCOC(=O)C1=C(Cl)NC(C)=C(C(=O)OCCN2CCOCC2)C1c1ccccc1[N+](=O)[O-] (stereo not drawn) [SUN 5252] | 0.0036 | – | –
COC(=O)C1=C(Cl)NC(C)=C(C(=O)OCCN(C)Cc2ccccc2)C1c1cccc([N+](=O)[O-])c1 (stereo not drawn) [SUN 5017] | 0.0033 | 17.0 | –
COC(=O)C1=C(Cl)NC(C)=C(C(=O)OCC2CC2)C1c1cccc([N+](=O)[O-])c1 (stereo not drawn) [SUN 5164] | 0.00022 | – | –
COCCOC(=O)C1=C(C)NC(Cl)=C(C(=O)OC)C1c1cccc([N+](=O)[O-])c1 (stereo not drawn) [SUN 5220] | 0.0058 | 13.5 | –
COC(=O)C1=C(Cl)NC(C)=C(C(=O)OC(C)C)C1c1cccc([N+](=O)[O-])c1 (stereo not drawn) [SUN 5141] | 0.00028 | 10.6 | LD50 [2, 5]: 80 mg/kg; ED50 [4]: 0.05 μg/heart; Blood pressure drop, Maximum drop [3]: 51%; Blood pressure drop, 6 hours [3]: 33%
COC(=O)C1=C(Cl)NC(C)=C(C(=O)OCCN2CCN(C3c4ccccc4-c4ccccc43)CC2)C1c1cccc([N+](=O)[O-])c1 (stereo not drawn) [SUN 5018] | 0.0043 | 15.5 | –
